Experimental data: patent US11369631B1, “Oral gelling liquid formulations” (UMM Rainforest Innovations, priority 2019, dated 2022)

Assay: Rheological analysis of thermal gelation temperature (oscillation temperature sweep, abrupt increase in G′)
Format: physicochemical
Conditions: for αG, rate of change in gelation temperature as a function of additive composition: 2% w/v HPMC 2910, linear fit TGel=T0−αGx (FIG. 5)
Text: Rheology is the most direct and reliable way to determine the sol-gel transition temperature, as well as characterize the rheological properties of both solution and subsequent gel. As a result, a rheometer was chosen to determine the sol-gel transition temperature of the HPMC solutions disclosed. Rheological properties such as dynamic moduli G′, G″, and complex viscosity η* change when the temperature is in the vicinity of the sol-gel transition. The rheometer is able to measure these properties during heating.
During the routine measurements in these studies, the following procedure was observed: (i) Each HPMC solution was placed on to the bottom Peltier plate of the Discovery Hybrid HR-2 rheometer (TA Instruments, Newcastle, Del., USA) equipped with a Peltier […] temperature system and a 50 mm parallel plate; (ii) Oscillation temperature sweep was performed to determine the effect of temperatures on complex viscosity (η*), storage modulus (G′), and loss modulus (G″) at angular frequency of 1 rad/s and stress applied was 0.4 Pa; (iii) In this study samples were heated in the range of 10-80° C. at a rate of 1° C./min. A thin layer of low-viscosity silicon oil was placed around the sample to prevent dehydration during measurements; (iv) All measurements were repeated in triplicate. The abrupt increase in G′, which is accompanied by a sharp increase in viscosity was considered to be a suitable way to define a thermal gelation temperature.
Statistical differences in the thermal gelation temperature of different hypromellose formulations containing different halide salt concentrations were determined using a one-way ANOVA test using Microsoft Excel Analysis Toolpak (Microsoft Inc., Redmond, Wash.). P values of <0.05 were considered statistically significant.

Row | SMILES | αG, rate of change in gelation temperature as a function of additive composition | factor by which αG-NaF is greater than αG-NaCl (2% w/v HPMC 2910) [times]
1 | [Cl-].[Na+] [NaCl, sodium chloride] | ~4.0 | –
2 | [F-].[Na+] [NaF, Sodium fluoride] | ~14.5 | ~3.6
